Measurements published in patent US20090288611A1, “Formula and method for treating water in fish tanks” (priority 2008, published 2009).

Test system: captive live fish
Assay: Holding captive live fish in water treated with isoeugenol
Type: in vivo
Description: The first key ingredient of the chemical mixture for treating the water in fish tanks of the present invention is isoeugenol (2-Methoxy-4-propenylphenol; 4-hydroxy-3-methoxy-1-propenylbenzene; 4-propenylguaiacol) C10H1202. Isoeugenol is an essential oil derived from oil of clove that has anesthetizing capabilities for fish in water. In the preferred embodiment, the formula for maintaining the life of fish contains about 43 ppm±10% of isoeugenol to slow the metabolism of captive live fish.
The benefits of treating the water in which fish are held or transported with isoeugenol are threefold. First, the metabolism of the fish is slowed and therefore the fish require less oxygen. The result is that more live fish may be held in smaller volumes of water. Also, live fish with a slower metabolism are easier to handle and fewer injuries are sustained by the fish.

[1] = overdoses up to 10 times the preferred amount of isoeugenol

Q: What does the source list for CC=Cc1ccc(O)c(OC)c1 [isoeugenol, 2-Methoxy-4-propenylphenol]?
A: effect on fish activity (sedation) (dosage rate of about 43 ppm±10% isoeugenol in the water): slow down fish activity sufficiently to allow handling of the live fish; coagulation of hook wounds (fish held in water treated with isoeugenol, metabolism calmed): hook wounds appear to coagulate faster; fish behaviour at overdose (equilibrium) [1]: some fish may still roll over and lose equilibrium; harm to fish at overdose [1]: not harmful to the fish
